We go through 13 compounds from publication PMC9635080, “Design, synthesis, in vitro, and in silico biological evaluations of coumarin-indole hybrids as new anti-α-glucosidase agents” (BMC Chemistry, 2022).

Bounds are passed on as bounds.

Data set [1] has as its target T1, yeast α-glucosidase (Saccharomyces cerevisiae, UniProt P53341).
T1 construct: purchased Sigma-Aldrich
Kind of data set: In vitro α-glucosidase inhibition assay. Format: biochemical. The conditions noted are these: for inhibitory activity against α-glucosidase (in words): SAR discussion; for potency relative to acarbose: fold more potent than acarbose, from IC50 values. As to the method:
Appropriate enzyme concentration was obtained in potassium phosphate buffer (pH 6.8, 50 mM), and coumarin-indole hybrids 4a–m were dissolved in DMSO (10% final concentration). […] The percentage of enzyme inhibition (% Inhibition) for each sample was calculated by using the following formula: %Inhibition=[(Abs control-Abs sample)/Abs control]×100
IC50 values were calculated from non-linear regression curve using by the Logit method.

For data set [2], the target named is T1, yeast α-glucosidase. Kind of data set: Kinetic study (Lineweaver–Burk plot) on α-glucosidase. It counts as biochemical. As to the method:
To determine the mechanism of α-glucosidase inhibition of the newly synthesized compounds, the kinetic study was performed on compound 4d as representative compound. The relative velocity of the α-glucosidase was determined on four increasing concentrations of the p-nitrophenyl glucopyranoside as substrate. […] Then, the Lineweaver-Burke plot was depicted using the reciprocal of velocity and substrate concentration (Fig. 2a).
Fig. 2 Kinetic study of compound 4d into α-glucosidase. a The Lineweaver–Burk plot in the absence and presence of different concentrations of compound 4d; b The secondary plot between Km and various concentrations of compound 4d
Appropriate enzyme concentration was obtained in potassium phosphate buffer (pH 6.8, 50 mM), and coumarin-indole hybrids 4a–m were dissolved in DMSO (10% final concentration). The potassium phosphate buffer (135 µL), various concentrations of the target compounds 4a–m (20 µL), and prepared enzyme solution (20 µL) were added to the 96-well plate and the later mixture was incubated for 10 min at 37 °C. […] Finally, the change in absorbance of the final mixture was measured at 405 nm by using spectrophotometer (Gen5, Power wave xs2, BioTek, America). […] The percentage of enzyme inhibition (% Inhibition) for each sample was calculated by using the following formula: %Inhibition=[(Abs control-Abs sample)/Abs control]×100

T1 sequence (P53341 whole entry): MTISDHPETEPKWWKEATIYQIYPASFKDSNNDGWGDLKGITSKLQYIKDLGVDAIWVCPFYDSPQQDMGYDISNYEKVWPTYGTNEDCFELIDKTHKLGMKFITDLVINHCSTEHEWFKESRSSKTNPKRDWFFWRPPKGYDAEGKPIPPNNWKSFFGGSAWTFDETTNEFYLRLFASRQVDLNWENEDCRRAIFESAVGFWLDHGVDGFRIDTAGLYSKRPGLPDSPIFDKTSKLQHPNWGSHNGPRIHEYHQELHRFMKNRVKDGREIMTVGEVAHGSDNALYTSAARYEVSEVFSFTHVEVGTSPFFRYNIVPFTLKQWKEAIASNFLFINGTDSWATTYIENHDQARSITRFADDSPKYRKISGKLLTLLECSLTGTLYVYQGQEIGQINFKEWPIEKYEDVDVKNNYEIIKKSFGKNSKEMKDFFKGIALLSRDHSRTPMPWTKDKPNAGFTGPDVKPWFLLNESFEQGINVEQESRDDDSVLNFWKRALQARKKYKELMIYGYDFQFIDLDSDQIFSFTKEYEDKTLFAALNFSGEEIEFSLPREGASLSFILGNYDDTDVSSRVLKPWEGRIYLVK

What is called IC50 is the concentration that gives 50% inhibition. What is called melting point is the temperature of the solid-liquid transition. With `O=c1oc2ccccc2c(O)c1C(c1ccc(Cl)cc1)c1c[nH]c2ccccc12` (stereo not drawn) [Compound 4j, 3-((4-Chlorophenyl)(1H-indol-3-yl)methyl)-4-hydroxy-2H-chromen-2-one], the melting point fell in the range of 235 to 237 °C. The IC50 on yeast α-glucosidase [1] was 230 ± 2.3 µM.

`O=c1oc2ccccc2c(O)c1C(c1ccc(F)cc1)c1c[nH]c2ccccc12` (stereo not drawn) [Compound 4h, 3-((4-Fluorophenyl)(1H-indol-3-yl)methyl)-4-hydroxy-2H-chromen-2-one]: the melting point lay within 243 to 245 °C. Also, on yeast α-glucosidase [1], the IC50 stood at 474.9 ± 2.6 µM and the “inhibitory activity against α-glucosidase (in words)” value (“inhibitory activity” below) was “dramatically decrease in inhibitory activity”.

As to `O=c1oc2ccccc2c(O)c1C(c1cccc([N+](=O)[O-])c1)c1c[nH]c2ccccc12` (stereo not drawn) [Compound 4m, 3-((1H-indol-3-yl)(3-nitrophenyl)methyl)-4-hydroxy-2H-chromen-2-one], the melting point lay within 198 to 200 °C. The IC50 against yeast α-glucosidase [1] turned out to be 180.5 ± 1.4 µM.

The compound `O=c1oc2ccccc2c(O)c1C(c1ccccc1[N+](=O)[O-])c1c[nH]c2ccccc12` (stereo not drawn) [Compound 4l, 3-((1H-indol-3-yl)(2-nitrophenyl)methyl)-4-hydroxy-2H-chromen-2-one] showed a melting point of 240 to 242 °C. Moreover, at yeast α-glucosidase [1], the IC50 is greater than 750 µM and the “inhibitory activity” value is on record as “completely abolished anti-α-glucosidase activity”.

For `O=c1oc2ccccc2c(O)c1C(c1ccc(O)cc1)c1c[nH]c2ccccc12` (stereo not drawn) [Compound 4f, 4-Hydroxy-3-((4-hydroxyphenyl)(1H-indol-3-yl)methyl)-2H-chromen-2-one], the melting point lay within 286 to 288 °C. Besides, on yeast α-glucosidase [1], the IC50 is greater than 750 µM and the “inhibitory activity” value is on record as “loss of effect”.

The term Ki denotes the equilibrium dissociation constant of an inhibitor or competing ligand from its target. A high value points to lower affinity. Consider `O=c1oc2ccccc2c(O)c1C(c1cccc(Oc2ccccc2)c1)c1c[nH]c2ccccc12` (stereo not drawn) [Compound 4d, 3-((1H-indol-3-yl)(3-phenoxyphenyl)methyl)-4-hydroxy-2H-chromen-2-one], for which the melting point fell in the range of 183 to 185 °C. On yeast α-glucosidase [2], the Ki worked out at 148 µM. On yeast α-glucosidase [2] (Lineweaver–Burk plot, inhibitor 0, 28, 58 and 116 µM), the type of inhibition result was “competitive type of inhibition”. Besides, on yeast α-glucosidase [1], the half-inhibitory concentration (IC50) was determined as 116 ± 0.7 µM and the “potency relative to acarbose” value is “around sixfold”.

`O=c1oc2ccccc2c(O)c1C(c1cccc(Br)c1)c1c[nH]c2ccccc12` (stereo not drawn) [Compound 4k, 3-((3-Bromophenyl)(1H-indol-3-yl)methyl)-4-hydroxy-2H-chromen-2-one] showed a melting point of 212 to 214 °C. For the same compound, at yeast α-glucosidase [1], the IC50 was greater than 750 µM and the “inhibitory activity” value is “did not show activity”.

Regarding `O=c1oc2ccccc2c(O)c1C(c1cccc(Cl)c1)c1c[nH]c2ccccc12` (stereo not drawn) [Compound 4i, 3-((3-Chlorophenyl)(1H-indol-3-yl)methyl)-4-hydroxy-2H-chromen-2-one], the melting point was 205 to 207 °C. At yeast α-glucosidase [1], the IC50 is greater than 750 µM and the “inhibitory activity” value is “loss of effect”.

Compound `O=c1oc2ccccc2c(O)c1C(c1ccccc1)c1c[nH]c2ccccc12` (stereo not drawn) [Compound 4a, 3-((1H-indol-3-yl)(phenyl)methyl)-4-hydroxy-2H-chromen-2-one] came in with a melting point of 231 to 233 °C. Further, at yeast α-glucosidase [1], the IC50 came out at 118 ± 3.1 µM and the “potency relative to acarbose” value was “around sixfold”.

`Cc1ccc(C(c2c(O)c3ccccc3oc2=O)c2c[nH]c3ccccc23)cc1` (stereo not drawn) [Compound 4b, 3-((1H-indol-3-yl)(p-tolyl)methyl)-4-hydroxy-2H-chromen-2-one] came in with a melting point of 269 to 271 °C. The compound further gave an IC50 on yeast α-glucosidase [1] of 167.5 ± 0.8 µM.

In the case of `O=c1oc2ccccc2c(O)c1C(c1cccc(O)c1)c1c[nH]c2ccccc12` (stereo not drawn) [Compound 4e, 4-Hydroxy-3-((3-hydroxyphenyl)(1H-indol-3-yl)methyl)-2H-chromen-2-one], the melting point was in the range of 200 to 202 °C. For the same compound, at yeast α-glucosidase [1], the IC50 is greater than 750 µM and the “inhibitory activity” value is “loss of effect”.

The compound `O=c1oc2ccccc2c(O)c1C(c1cccc(F)c1)c1c[nH]c2ccccc12` (stereo not drawn) [Compound 4g, 3-((3-Fluorophenyl)(1H-indol-3-yl)methyl)-4-hydroxy-2H-chromen-2-one] gave a melting point of 222 to 224 °C. At yeast α-glucosidase [1], this compound had a half-maximal inhibitory concentration (IC50) of 174 ± 2.3 µM.

Consider `COc1ccc(C(c2c(O)c3ccccc3oc2=O)c2c[nH]c3ccccc23)cc1` (stereo not drawn) [Compound 4c, 3-((1H-indol-3-yl)(4-methoxyphenyl)methyl)-4-hydroxy-2H-chromen-2-one], for which the melting point is 246 to 248 °C. Moreover, inhibition against yeast α-glucosidase [1] was half-maximal at 170 ± 2.1 µM (IC50).
